Assay results taken from patent US9156858B2, “Boronic acid derivatives and therapeutic uses thereof” (priority 2012, dated 2015).
Read-outs that look alike come from different tables or passages of the source.

Columns and labels:
ec308 (SHV-5) [1] = test: Aztreonam MIC of test strain; format: cell-based; conditions: read-out: Aztreonam MIC
ECL1002 (class C) [2] = test: Aztreonam MIC of test strain; format: cell-based; conditions: read-out: Aztreonam MIC
KP1010 (SHV-12) [3] = test: Tigemonam potentiation (MPC@4); format: cell-based; conditions: BLI concentration inhibiting growth with 4 μg/mL tigemonam; class A
KPC-2 = KPC-2 (Klebsiella pneumoniae, UniProt Q9F663); test: Inhibition of nitrocefin cleavage by purified enzyme; format: biochemical
Description: (§1) Ki values of inhibition of purified class A, C and D enzymes were determined spectrophotometrically using nitrocefin as reporter substratre. Purified enzymes were mixed with various concentrations of inhibitors in reaction buffer and incubated for 10 min at room temperature. Nitrocefin was added and substrate cleavage profiles were recorded at 490 nm every 10 sec for 10 min.

OXA-48 = OXA-48 (Klebsiella pneumoniae, UniProt Q6XEC0); test: as above; format: biochemical
Description: as §1

CTX-M-14 = CTX-M-14 (Escherichia coli, UniProt Q9L5C7); test: as above; format: biochemical; conditions: nitrocefin reporter substrate, 10 min preincubation, read-out: Ki (CTX-M-14, NCF)
Description: as §1

KP1009 (CTX-M-15) [4] = test: Tigemonam potentiation (MPC@4); format: cell-based; conditions: BLI concentration inhibiting growth with 4 μg/mL tigemonam; class A
ec308 (SHV-5) [5] = test: Tigemonam potentiation (MPC@4); format: cell-based; conditions: BLI concentration inhibiting growth with 4 μg/mL tigemonam; class A
KPX1001 (OXA-2) = test: Aztreonam potentiation (MPC@4); format: cell-based; conditions: BLI concentration inhibiting growth with 4 μg/mL aztreonam; class D
KP1007 (OXA-10) [6] = test: Tigemonam potentiation (MPC@4); format: cell-based; conditions: BLI concentration inhibiting growth with 4 μg/mL tigemonam; class D
KP1007 (OXA-10) [7] = test: Aztreonam potentiation (MPC@4); format: cell-based; conditions: BLI concentration inhibiting growth with 4 μg/mL aztreonam; class D
CMY-2 = CMY-2 (Klebsiella pneumoniae, UniProt Q48434); test: biochemical
KP1005 (CTX-M-14) [8] = test: Aztreonam potentiation (MPC@4); format: cell-based; conditions: BLI concentration inhibiting growth with 4 μg/mL aztreonam; class A
KP1005 (CTX-M-14) [9] = test: Tigemonam potentiation (MPC@4); format: cell-based; conditions: BLI concentration inhibiting growth with 4 μg/mL tigemonam; class A
ECL1002 (class C) [10] = test: Tigemonam potentiation (MPC@4); format: cell-based; conditions: BLI concentration inhibiting growth with 4 μg/mL tigemonam
ECL1002 (class C) [11] = test: Aztreonam potentiation (MPC@4); format: cell-based; conditions: BLI concentration inhibiting growth with 4 μg/mL aztreonam
ec308 (SHV-5) [12] = test: Aztreonam potentiation (MPC@4); format: cell-based; conditions: BLI concentration inhibiting growth with 4 μg/mL aztreonam; class A
EC1010 (CMY-6) [13] = test: Tigemonam potentiation (MPC@4); format: cell-based; conditions: BLI concentration inhibiting growth with 4 μg/mL tigemonam; class C
KP1009 (CTX-M-15) [14] = test: Aztreonam potentiation (MPC@4); format: cell-based; conditions: BLI concentration inhibiting growth with 4 μg/mL aztreonam; class A
KP1004 (KPC-2) = test: Aztreonam potentiation (MPC@4); format: cell-based; conditions: BLI concentration inhibiting growth with 4 μg/mL aztreonam; class A
ec302 (TEM-10) [15] = test: Tigemonam potentiation (MPC@4); format: cell-based; conditions: BLI concentration inhibiting growth with 4 μg/mL tigemonam; class A
KP1010 (SHV-12) [16] = test: Aztreonam potentiation (MPC@4); format: cell-based
EC1010 (CMY-6) [17] = test: Aztreonam potentiation (MPC@4); format: cell-based; conditions: BLI concentration inhibiting growth with 4 μg/mL aztreonam; class C
ec302 (TEM-10) [18] = test: Aztreonam potentiation (MPC@4); format: cell-based; conditions: BLI concentration inhibiting growth with 4 μg/mL aztreonam; class A
SHV-12 = SHV-12 (Klebsiella pneumoniae, UniProt P0AD64, E235K/G234S/L31Q); test: Inhibition of nitrocefin cleavage by purified enzyme; format: biochemical; conditions: nitrocefin reporter substrate, 10 min preincubation, read-out: Ki (SHV-12, NCF)
Description: as §1

P99 /AmpC of ECL = P99 /AmpC of ECL (Enterobacter cloacae, UniProt P05364); test: biochemical; conditions: purified enzyme, nitrocefin reporter substrate, 10 min preincubation; read-out: Ki (P99 /AmpC of ECL, NCF)
KP1005 (CTX-M-14) [19] = system: KP1005 (CTX-M-14)
ECL1002 (class C) [20] = conditions: strain ECL1002, class C
KP1010 (SHV-12) [21] = test: Tigemonam MIC of test strain
EC1010 (CMY-6) [22] = test: Tigemonam MIC of test strain; conditions: strain EC1010, CMY-6, class C
KP1007 (OXA-10) [23] = test: Tigemonam MIC of test strain; conditions: strain KP1007, OXA-10, class D
ec302 (TEM-10) [24] = test: Tigemonam MIC of test strain
[25] = purified enzyme, nitrocefin reporter substrate, 10 min preincubation, read-out: Ki (KPC-2, NCF)
[26] = purified enzyme, nitrocefin reporter substrate, 10 min preincubation, read-out: Ki (OXA-48, NCF)
[27] = purified enzyme, nitrocefin reporter substrate, 10 min preincubation, read-out: Ki (CMY-2, NCF)
[28] = BLI concentration inhibiting growth with 4 μg/mL aztreonam, class A

CMY-2, sequence (Q48434 21-381): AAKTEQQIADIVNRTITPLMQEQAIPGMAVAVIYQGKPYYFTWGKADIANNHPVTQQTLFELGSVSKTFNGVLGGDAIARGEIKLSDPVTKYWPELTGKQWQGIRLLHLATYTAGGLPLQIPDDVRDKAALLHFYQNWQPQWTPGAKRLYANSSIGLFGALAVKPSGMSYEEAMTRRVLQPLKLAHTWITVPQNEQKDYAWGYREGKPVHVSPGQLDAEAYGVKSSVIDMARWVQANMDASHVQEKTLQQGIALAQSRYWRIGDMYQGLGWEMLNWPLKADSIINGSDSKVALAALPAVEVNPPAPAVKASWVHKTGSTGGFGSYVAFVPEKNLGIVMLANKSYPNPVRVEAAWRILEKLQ
OXA-48, sequence (Q6XEC0 23-265 limits assumed): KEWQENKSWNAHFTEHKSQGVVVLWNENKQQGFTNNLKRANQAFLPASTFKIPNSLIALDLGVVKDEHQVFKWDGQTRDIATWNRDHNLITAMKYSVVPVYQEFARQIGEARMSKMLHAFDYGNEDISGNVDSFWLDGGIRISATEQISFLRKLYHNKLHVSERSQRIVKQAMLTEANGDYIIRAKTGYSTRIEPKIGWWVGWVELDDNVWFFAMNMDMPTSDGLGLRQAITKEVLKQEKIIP
KPC-2, sequence (Q9F663 25-293 limits assumed): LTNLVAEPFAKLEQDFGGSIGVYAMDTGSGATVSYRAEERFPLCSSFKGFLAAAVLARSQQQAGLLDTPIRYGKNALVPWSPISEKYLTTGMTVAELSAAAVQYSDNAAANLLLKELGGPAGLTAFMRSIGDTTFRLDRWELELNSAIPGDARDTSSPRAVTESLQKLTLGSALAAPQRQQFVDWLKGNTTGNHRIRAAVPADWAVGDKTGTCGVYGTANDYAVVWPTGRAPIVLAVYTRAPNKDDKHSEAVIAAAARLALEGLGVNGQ
CTX-M-14, sequence (Q9L5C7 entry or part of it): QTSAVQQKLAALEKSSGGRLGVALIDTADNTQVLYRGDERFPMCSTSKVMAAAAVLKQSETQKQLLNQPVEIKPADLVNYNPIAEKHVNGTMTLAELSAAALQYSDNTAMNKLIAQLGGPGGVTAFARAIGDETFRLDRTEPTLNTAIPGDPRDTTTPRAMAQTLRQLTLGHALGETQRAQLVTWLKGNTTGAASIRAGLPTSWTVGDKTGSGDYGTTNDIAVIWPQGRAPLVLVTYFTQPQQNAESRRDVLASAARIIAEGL
SHV-12, sequence (P0AD64 22-286 L31Q/G234S/E235K): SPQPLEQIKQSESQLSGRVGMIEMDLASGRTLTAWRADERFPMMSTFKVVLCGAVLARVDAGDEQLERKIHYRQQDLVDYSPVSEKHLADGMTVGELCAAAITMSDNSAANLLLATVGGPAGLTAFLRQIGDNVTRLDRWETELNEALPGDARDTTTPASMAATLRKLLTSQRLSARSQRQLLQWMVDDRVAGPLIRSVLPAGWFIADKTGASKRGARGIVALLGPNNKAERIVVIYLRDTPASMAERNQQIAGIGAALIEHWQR
P99 /AmpC of ECL, sequence (P05364 21-381): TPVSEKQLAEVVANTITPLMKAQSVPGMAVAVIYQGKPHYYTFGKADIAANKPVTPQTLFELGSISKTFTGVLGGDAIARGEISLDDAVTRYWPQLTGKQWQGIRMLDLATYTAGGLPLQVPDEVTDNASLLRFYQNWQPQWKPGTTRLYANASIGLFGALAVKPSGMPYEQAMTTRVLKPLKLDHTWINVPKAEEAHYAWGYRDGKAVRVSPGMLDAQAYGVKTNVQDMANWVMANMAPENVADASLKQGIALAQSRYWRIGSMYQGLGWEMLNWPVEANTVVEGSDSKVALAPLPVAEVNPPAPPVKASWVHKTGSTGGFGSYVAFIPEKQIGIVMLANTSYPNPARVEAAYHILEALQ

Row | SMILES | MPC4 SHV-12 KP1010 (KP1010 (SHV-12) [3]) | Ki (KPC-2; [25]) | Ki (OXA-48; [26]) | Ki (CTX-M-14) | MPC4 CTX-M-15 KP1009 (KP1009 (CTX-M-15) [4]) | MPC4 SHV-5 ec308 (ec308 (SHV-5) [5]) | AZT MPC@4 OXA-2, KPX1001 (KPX1001 (OXA-2)) | MPC4 OXA-10, KP1007 (KP1007 (OXA-10) [6]) | AZT MPC@4 OXA-10, KP1007 (KP1007 (OXA-10) [7]) | AZT MPC4 CTX-M-14 KP1005 (KP1005 (CTX-M-14) [8]) | MPC4 CTX-M-14 KP1005 (KP1005 (CTX-M-14) [9]) | MPC4 ECL1002 (ECL1002 (class C) [10]) | AZT MPC@4 ECL1002 (ECL1002 (class C) [11]) | AZT MPC4 SHV-5 ec308 (ec308 (SHV-5) [12]) | MPC4 CMY-6, EC1010 (EC1010 (CMY-6) [13]) | AZT MPC4 CTX-M-15 KP1009 (KP1009 (CTX-M-15) [14]) | AZT MPC4 KPC-2 KP1004 (KP1004 (KPC-2)) | MPC4 TEM-10 ec302 (ec302 (TEM-10) [15]) | AZT MPC@4 CMY-6 EC1010 (EC1010 (CMY-6) [17]) | AZT MPC4 TEM-10 ec302 (ec302 (TEM-10) [18]) | other results
1 | C[C@H]1[C@H](NC(=O)/C(=N\OC(C)(C)C(=O)O)c2csc(N)n2)C(=O)N1S(=O)(=O)O [Aztreonam] |  |  |  |  |  |  |  |  |  |  |  |  |  |  |  |  |  |  |  |  | MIC (ec308 (SHV-5) [1]): 64 µg/mL; MIC (ECL1002 (class C) [2]): 64 µg/mL
2 | O=C(O)[C@H]1/C(=C/CO)O[C@@H]2CC(=O)N21 [Clavulanic Acid] | <=0.6 μg/mL | 41200 nM | 18600 nM | 27 nM | 1.25 µg/mL | <=0.6 μg/mL | 5 µg/mL | <=0.6 μg/mL | 0.08 µg/mL | 1.25 µg/mL | 2.5 µg/mL | >40 µg/mL | >40 µg/mL | 0.08 µg/mL | 40 µg/mL | 1.25 µg/mL | >40 µg/mL | 2.5 µg/mL | 40 µg/mL | 0.3 µg/mL | Ki (CMY-2; [27]): > 100000 nM; AZT MPC4 SHV-12 KP1010 (KP1010 (SHV-12) [16]; [28]): 0.04 µg/mL
3 | O=C(Cc1cccs1)N[C@@H](Cn1cc(C(=O)O)nn1)B(O)O [Compound 1, (R)-1-(2-borono-2-(2-(thiophen-2-yl)acetamido)ethyl)-1H-1,2,3-triazole-4-carboxylic acid] | 0.3 µg/mL | 39 nM | 23300 nM | 5 nM | 1.25 µg/mL | 2.5 µg/mL | 40 µg/mL | 0.3 µg/mL | 0.6 µg/mL | 1.25 µg/mL | 2.5 µg/mL | 5 µg/mL | 20 µg/mL | 0.6 µg/mL | 0.6 µg/mL | 10 µg/mL | 5 µg/mL | >40 µg/mL | 20 µg/mL | >40 µg/mL | Ki (SHV-12): 5 nM; Ki (CMY-2; [27]): 60 nM; AZT MPC4 SHV-12 KP1010 (KP1010 (SHV-12) [16]; [28]): 0.3 µg/mL; Ki (P99 /AmpC of ECL): 80 nM
4 | C[C@]1(Cn2ccnn2)[C@H](C(=O)O)N2C(=O)C[C@H]2S1(=O)=O [Tazobactam] | 1.25 µg/mL |  |  |  | 10 µg/mL | 5 µg/mL | >40 µg/mL | 5 µg/mL | 5 µg/mL | 10 µg/mL | 10 µg/mL | 10 µg/mL | >40 µg/mL | 10 µg/mL | 2.5 µg/mL | 20 µg/mL | >40 µg/mL | 5 µg/mL | 20 µg/mL | 5 µg/mL | Ki (KPC-2): 1600 nM; Ki (OXA-48): 160 nM; Ki (CMY-2): 710 nM; AZT MPC4 SHV-12 KP1010 (KP1010 (SHV-12) [16]): 1.25 µg/mL
5 | CC1(C)[C@H](NC(=O)/C(=N\OCC(=O)O)c2csc(N)n2)C(=O)N1OS(=O)(=O)O [Tigemonam] |  |  |  |  |  |  |  |  |  |  |  |  |  |  |  |  |  |  |  |  | Tigemonam MIC (KP1005 (CTX-M-14) [19]): 512 µg/mL; Tigemonam MIC (ECL1002 (class C) [20]): 32 µg/mL; Tigemonam MIC (KP1010 (SHV-12) [21]): 256 µg/mL; Tigemonam MIC (EC1010 (CMY-6) [22]): 16 µg/mL; Tigemonam MIC (KP1007 (OXA-10) [23]): >64 µg/mL; Tigemonam MIC (ec302 (TEM-10) [24]): >512 µg/mL
